Tests used:
Experiment in all cases: relative viability (nuclei count vs DMSO), 5 days (fraction); higher = more cells survive
[1] = compound: CN1CCC(CC1)OC2=CC(=C(C=C2)NC3=NC=C4C(=N3)N(C(=O)N4C)C5CCCC5)OC [AZ3146] + C[C@@H](Oc1cc(-c2cnn(C3CCNCC3)c2)cnc1N)c1c(Cl)ccc(F)c1Cl [Crizotinib] (partner 1 µM)
In short: (§1)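 One day after seeding in 1536-well plates, lung cancer cell lines were dosed by pin tool. Dosing was either single-drug or a fixed anchor-drug dose plus five library-drug doses (not always all listed) in √10 steps. After 5 days, nuclei were stained in one fix-and-stain step and counted on 4× images, and relative viability is the nuclei count of treated wells over that of vehicle wells, given as the median of duplicate plates.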

[2] = compound: CCOC(=O)CCNc1cc(N2CCc3ccccc3CC2)nc(-c2ccccn2)n1 [GSK-J4] + CC(=O)c1c(C)c2cnc(Nc3ccc(N4CCNCC4)cn3)nc2n(C2CCCC2)c1=O [Palbociclib] (partner 0.5 µM)
In short: as §1

[3] = compound: CCOC(=O)CCNc1cc(N2CCc3ccccc3CC2)nc(-c2ccccn2)n1 [GSK-J4] + CC1(C)CCC(c2ccc(Cl)cc2)=C(CN2CCN(c3ccc(C(=O)NS(=O)(=O)c4ccc(N[C@H](CCN5CCOCC5)CSc5ccccc5)c(S(=O)(=O)C(F)(F)F)c4)cc3)CC2)C1 [Navitoclax] (partner 0.5 µM)
In short: as §1

[4] = compound: CN1CCC(CC1)OC2=CC(=C(C=C2)NC3=NC=C4C(=N3)N(C(=O)N4C)C5CCCC5)OC [AZ3146] + C[C@]1(O)C[C@@H](c2nc(-c3ccc4ccc(-c5ccccc5)nc4c3)c3c(N)nccn32)C1 [Linsitinib] (partner 1 µM)
In short: as §1

Cell Line	relative viability ([1]; first compound 0.08 µM)	relative viability ([1]; first compound 0.253 µM)	relative viability ([1]; first compound 0.8 µM)	relative viability ([1]; first compound 2.53 µM)	relative viability ([1]; first compound 8 µM)	relative viability ([2]; first compound 0.5 µM)	relative viability ([2]; first compound 1.581 µM)	relative viability ([2]; first compound 5 µM)	relative viability ([2]; first compound 15.81 µM)	relative viability ([2]; first compound 50 µM)	relative viability ([3]; first compound 0.5 µM)	relative viability ([3]; first compound 1.581 µM)	relative viability ([3]; first compound 15.81 µM)	relative viability ([3]; first compound 50 µM)	relative viability ([4]; first compound 0.08 µM)	relative viability ([4]; first compound 0.253 µM)	relative viability ([4]; first compound 0.8 µM)	relative viability ([4]; first compound 2.53 µM)	relative viability ([4]; first compound 8 µM)	relative viability ([3]; first compound 5 µM)
NCI-H2087	0.906	0.875	0.843	0.795	0.376	0.256	0.243	0.282	0.24	0.227	0.795	1.08	0.99	0.758	0.816	0.952	1.11	1.02	1	
NCI-H2126	1.05	0.992	1.06	1.07	0.989	0.374	0.397	0.356	0.333	0.358	0.823	0.842	0.72	0.709	0.687	0.667	0.761	0.739	0.696	0.849
NCI-H2228	0.537	0.503	0.423	0.396	0.369	0.672	0.765	0.817	0.784	0.722	1.1	0.868	0.8	0.871	1	0.867	0.657	0.628	0.774	1.07
NCI-H2347	0.522	0.677	0.822	0.647	0.699	0.448	0.374	0.411	0.436	0.419	0.7	0.746	0.829	0.608	1.01	0.893	0.891	0.887	0.988	0.774
NCI-H2405	0.808	0.842	0.733	0.899	0.798	0.525	0.458		0.522	0.508	0.835	0.848	0.952	0.928	0.973		1.04	0.937	0.747	
NCI-H3122	0.294	0.299	0.274	0.305	0.27	0.18	0.2	0.181	0.177	0.191	1.02	1	1.04	0.973	1.02	1.06	1.03	1.04	1.06	1.02
PC-3 [JPC-3]	0.912	0.983	0.974	1.03	0.984	0.499	0.511	0.512	0.497	0.514	0.77	0.742	0.743	0.753	0.972	0.96	1.01	0.996	0.932	0.787
PC-14	0.898	0.98	0.975	1	0.828	0.471	0.624	0.454	0.518	0.544	0.939	1.02	1.02	0.926	1.05	0.995	0.98	1.03	0.941	0.948
RERF-LC-KJ	0.794	0.864	0.816	0.864	0.66	1.07	0.954	1.13	1.04	0.728	0.756	1.01	0.795	0.763	0.904	0.902	0.972	0.876	0.896	0.881
SK-LU-1	1.1	1.11	1.03	0.985	0.471	0.362	0.421	0.346	0.336	0.295	0.733	0.832	0.596	0.537	1.02	1.4	1.13	1.27	0.547	0.682
SK-MES-1	0.936	1.03	0.97	1.12	1.05	0.314	0.29	0.319	0.283	0.313	1.13	1.03	1.01	0.857	1.06	1.06	1.01	1.09	1.12	1.25
SW 1573	0.758	0.843	0.892	0.891	0.531	0.38	0.336	0.347	0.382	0.237	0.941	1.1	0.823	0.705	0.912	0.933	0.823	0.859	0.708	0.951

— the supplement of paper PMC10307832
